Drawing on PubChem BioAssay (NCI), this text covers TGI for 30 compounds.

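Assay format: 96-well plates, 48-hour exposure. TGI: concentration producing complete growth inhibition.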

The subject of one test is NCI-H23 lung. Nature of the test: DTP human tumour cell line panel, 48 h.
What is called TGI is the concentration at which net growth stops. As for `Cc1nc2ccccc2c(=O)n1-c1ccccc1I`, the TGI was above 100 µM.

In turn, `O=C1/C(=C/c2ccccc2)CN(C(=O)C(Cl)(Cl)Cl)C/C1=C\c1ccccc1` came in with a TGI of 6.8 µM.

`COC1CCC2C(NS(=O)(=O)c3ccc(C)cc3)CCCC2O1` (stereo not given) (tested in a mixture with another compound) yielded a TGI above 34.5 µM.

As to `CN(C)C(=N)c1ccccc1`, the TGI was above 100 µM.

On to `Cc1cc(C)nc(NS(=O)(=O)c2ccc(NC(=O)c3ccc(Cl)c4c(Nc5ccc(S(=O)(=O)Nc6nc(C)cc(C)n6)cc5)c5ccccc5nc34)cc2)n1`, for which the total growth inhibition concentration (TGI) stood at 39.7 µM.

As to `CC1=C(C(=O)NCc2ccccc2)C(/C=C/c2ccccc2)C(C(=O)NCc2ccccc2)=C(C)N1`, the TGI is above 100 µM.

`O=S1(=O)c2ccccc2NC(c2ccc3ccccc3c2)CC1c1ccccc1F` (stereo not given) registered a TGI above 100 µM.

Another test has as its system UACC-257 melanoma. Nature of the test: DTP human tumour cell line panel, 48 h.
`O=C(O)c1ccccc1[Se][Se]c1ccccc1C(=O)O` registered a TGI above 100 µM.

`CC(C)=CC(=O)C1c2cccc(O)c2C(=O)c2c(O)cc(C)cc21` (stereo not given): the TGI came to 8.5 µM.

For the compound `O=C(O)CCc1coc2ccc(O)cc12`, the TGI is above 100 µM.

Regarding `COC(=O)CC1CCN(C#N)CC1CC[N+](=O)[O-]` (stereo not given), the concentration for total growth inhibition (TGI) was above 100 µM.

Regarding `Cc1ccc(N=Nc2ccc(N(CCC#N)CCC#N)cc2C)c(Br)c1`, the TGI is above 100 µM.

`CC(C)C/C(CC(=O)CCC(=O)Nc1ccccc1[N+](=O)[O-])=N\NC(=O)c1cc2ccccc2cc1O`: the TGI is above 100 µM.

As to `CCOc1ccc(NC(=O)C(=O)CC(=O)c2c[n+](=O)c3cc(C)c(C)cc3n2[O-])cc1`, the TGI is above 100 µM.

`O=CC[C@H]1C(=O)C[C@@H]2CCC[C@@H]21` displayed a TGI above 100 µM.

In turn, `O=C(N/C(=C\c1ccc(/C=C(\NC(=O)c2ccccc2)c2nc3cc([N+](=O)[O-])ccc3[nH]2)cc1)c1nc2cc([N+](=O)[O-])ccc2[nH]1)c1ccccc1` registered a TGI above 100 µM.

The compound `COC(CN1C(=O)c2cccc3cccc(c23)C1=O)OC` had a TGI above 100 µM.

Compound `CCCCCCCCCCCCCCCCCC(CCCCCCCCCCCCCCCCC)OP(=O)(O)O` came in with a TGI above 100 µM.

Consider `COC1(OC)CCC2C1C1CCC(OC)(OC)C21` (stereo not given), for which the TGI was above 50 µM.

With `CN1C(=O)C(C)(C)C2(SC(C)(C)C2(C)C)N(C)C1=S` (stereo not given), the total growth inhibition concentration (TGI) is above 100 µM.

Compound `C/C(CC(=O)CCC(=O)Nc1cccc(C(F)(F)F)c1)=N\NC(=O)NN` registered a TGI above 100 µM.

The compound `N#CCCN(CCC#N)c1ccc(/C=C2\N=C(c3cc([N+](=O)[O-])ccc3Cl)OC2=O)cc1` had a TGI of 44.1 µM.

With `O=C(/C=C/c1ccccc1)NC1C=Nc2ccc(Cl)cc2NC1=O` (stereo not given), the TGI stood at 87 µM.

In turn, `COc1ccccc1C12OC(=O)C1(C)Oc1ccccc1C2=O` (stereo not given) displayed a TGI above 100 µM.

On to `O=C1C2C(C(=O)N1OS(=O)(=O)c1ccccc1)N(Cc1ccccc1)C(=O)N2Cc1ccccc1` (stereo not given), for which the TGI was above 100 µM.

`O=C(COc1ccc(Br)cc1Br)N1N=C(c2ccc([N+](=O)[O-])o2)CC1(O)c1ccccc1` (stereo not given) returned a TGI of 45.4 µM.

In turn, `N#CC(c1ccc(Cl)cc1)c1cccc(C(C#N)c2ccc(Cl)cc2)n1` (stereo not given) had a TGI above 100 µM.

For `O=C1C(=O)N(c2ccc(Cl)cc2Cl)C(=O)C(=O)C1c1nc2ccccc2s1`, the TGI is above 100 µM.

In turn, `Clc1cc2nsnc2c(Cl)n1` had a TGI of 72.3 µM.

Consider `N#CC1C(C#N)C2(c3ccccc3)C(c3ccccc3)=NN(c3ccccc3)CC12` (stereo not given), for which the TGI was above 100 µM.

`Cc1nc2ccccc2c(=O)n1-c1ccccc1I` yielded a TGI above 100 µM.

As for `O=C1/C(=C/c2ccccc2)CN(C(=O)C(Cl)(Cl)Cl)C/C1=C\c1ccccc1`, the TGI came to 2.92 µM.

Take `COC1CCC2C(NS(=O)(=O)c3ccc(C)cc3)CCCC2O1` (stereo not given) (tested in a mixture with another compound): the TGI was above 34.5 µM.

With `CN(C)C(=N)c1ccccc1`, the TGI is above 100 µM.

Turning to `Cc1cc(C)nc(NS(=O)(=O)c2ccc(NC(=O)c3ccc(Cl)c4c(Nc5ccc(S(=O)(=O)Nc6nc(C)cc(C)n6)cc5)c5ccccc5nc34)cc2)n1`, the TGI came out at 81.6 µM.

In turn, `CC1=C(C(=O)NCc2ccccc2)C(/C=C/c2ccccc2)C(C(=O)NCc2ccccc2)=C(C)N1` displayed a TGI above 100 µM.

`O=S1(=O)c2ccccc2NC(c2ccc3ccccc3c2)CC1c1ccccc1F` (stereo not given) showed a TGI above 100 µM.

For the next test, the system named is UO-31 renal. Nature of the test: DTP human tumour cell line panel, 48 h.
On to `O=C(O)c1ccccc1[Se][Se]c1ccccc1C(=O)O`, for which the TGI is 28.3 µM.

For the compound `CC(C)=CC(=O)C1c2cccc(O)c2C(=O)c2c(O)cc(C)cc21` (stereo not given), the TGI came to 3.74 µM.

With `COC(=O)CC1CCN(C#N)CC1CC[N+](=O)[O-]` (stereo not given), the TGI was above 100 µM.

Turning to `Cc1ccc(N=Nc2ccc(N(CCC#N)CCC#N)cc2C)c(Br)c1`, the TGI is above 100 µM.

`CC(C)C/C(CC(=O)CCC(=O)Nc1ccccc1[N+](=O)[O-])=N\NC(=O)c1cc2ccccc2cc1O` had a TGI above 100 µM.

Take `CCOc1ccc(NC(=O)C(=O)CC(=O)c2c[n+](=O)c3cc(C)c(C)cc3n2[O-])cc1`: the TGI was above 100 µM.

With `O=C(N/C(=C\c1ccc(/C=C(\NC(=O)c2ccccc2)c2nc3cc([N+](=O)[O-])ccc3[nH]2)cc1)c1nc2cc([N+](=O)[O-])ccc2[nH]1)c1ccccc1`, the TGI is above 100 µM.

`COC(CN1C(=O)c2cccc3cccc(c23)C1=O)OC` showed a TGI above 100 µM.

As for `CCCCCCCCCCCCCCCCCC(CCCCCCCCCCCCCCCCC)OP(=O)(O)O`, the TGI was above 100 µM.

For the compound `COC1(OC)CCC2C1C1CCC(OC)(OC)C21` (stereo not given), the TGI is above 50 µM.

`CN1C(=O)C(C)(C)C2(SC(C)(C)C2(C)C)N(C)C1=S` (stereo not given): the TGI was above 100 µM.

`C/C(CC(=O)CCC(=O)Nc1cccc(C(F)(F)F)c1)=N\NC(=O)NN` came in with a TGI above 100 µM.

The compound `N#CCCN(CCC#N)c1ccc(/C=C2\N=C(c3cc([N+](=O)[O-])ccc3Cl)OC2=O)cc1` registered a TGI above 100 µM.

As for `O=C(/C=C/c1ccccc1)NC1C=Nc2ccc(Cl)cc2NC1=O` (stereo not given), the TGI was found to be 87.8 µM.

The compound `COc1ccccc1C12OC(=O)C1(C)Oc1ccccc1C2=O` (stereo not given) came in with a TGI above 100 µM.

The compound `O=C1C2C(C(=O)N1OS(=O)(=O)c1ccccc1)N(Cc1ccccc1)C(=O)N2Cc1ccccc1` (stereo not given) returned a total growth inhibition concentration (TGI) above 100 µM.

`O=C(COc1ccc(Br)cc1Br)N1N=C(c2ccc([N+](=O)[O-])o2)CC1(O)c1ccccc1` (stereo not given) gave a TGI of 21.3 µM.

Take `N#CC(c1ccc(Cl)cc1)c1cccc(C(C#N)c2ccc(Cl)cc2)n1` (stereo not given): the TGI amounted to 42.3 µM.

With `O=C1C(=O)N(c2ccc(Cl)cc2Cl)C(=O)C(=O)C1c1nc2ccccc2s1`, the TGI was above 100 µM.

`Clc1cc2nsnc2c(Cl)n1`: the TGI amounted to 39.8 µM.

`N#CC1C(C#N)C2(c3ccccc3)C(c3ccccc3)=NN(c3ccccc3)CC12` (stereo not given) showed a TGI above 100 µM.

`Cc1nc2ccccc2c(=O)n1-c1ccccc1I`: the TGI was above 100 µM.

Turning to `O=C1/C(=C/c2ccccc2)CN(C(=O)C(Cl)(Cl)Cl)C/C1=C\c1ccccc1`, the TGI worked out at 7.03 µM.

In the case of `COC1CCC2C(NS(=O)(=O)c3ccc(C)cc3)CCCC2O1` (stereo not given) (tested in a mixture with another compound), the TGI is above 34.5 µM.

As to `CN(C)C(=N)c1ccccc1`, the TGI was above 100 µM.

For `Cc1cc(C)nc(NS(=O)(=O)c2ccc(NC(=O)c3ccc(Cl)c4c(Nc5ccc(S(=O)(=O)Nc6nc(C)cc(C)n6)cc5)c5ccccc5nc34)cc2)n1`, the TGI amounted to 57.4 µM.

In the case of `CC1=C(C(=O)NCc2ccccc2)C(/C=C/c2ccccc2)C(C(=O)NCc2ccccc2)=C(C)N1`, the TGI is above 100 µM.

Regarding `O=S1(=O)c2ccccc2NC(c2ccc3ccccc3c2)CC1c1ccccc1F` (stereo not given), the TGI is above 100 µM.
